The subject of data set [1] is fasted healthy subjects. The following applies: 200 mg once daily; cited from earlier work.
The conditions of data set [2]: in humans; accumulates in fat tissue; cited from earlier work.
The conditions of data set [3]: data from phase 2 studies; cited from earlier work.
Data set [4] deals with patients. The following applies: 150 mg once daily; cited from earlier work.
For data set [5] the following is noted: in vivo; cited from earlier work.
Data set [6] deals with patients with mild dyslipidemia. In words: Double-blind, placebo-controlled phase 2 trial: fasted lipid profile after 12 weeks. The class given is in vivo, human. The protocol: In a double-blind, placebo controlled clinical study the effects of 12 weeks of administration of Compound A alone and in combination with statins in patients with mild dyslipidemia was examined. […] Patients were recruited at 20 sites in the Netherlands and Denmark. The trial was approved by Independent Ethics Committees, and each patient provided written informed consent. The trial was conducted in accordance with the principles of the Declaration of Helsinki and Good Clinical Practice Guidelines and the protocol was registered on ClinicalTrials.gov (NCT01970215). The trial consisted of a screening visit, followed by a run-in phase of 4 weeks (or 6 weeks for patients that required a washout of existing lipid-lowering therapy). […] All treatments were to be taken once daily with food for 12 weeks. […] Follow-up visits were conducted 2 and 8 weeks after the end of treatment. Safety was assessed throughout the trial by monitoring adverse events and concomitant medication use, 12-lead electrocardiograms (ECGs), vital signs, laboratory safety assessments and physical examinations. Additional assessments included salivary cortisol, plasma aldosterone, high-sensitivity C-reactive protein (hsCRP) and endothelin 1. Efficacy assessments included fasted lipid profiles including total cholesterol (TC), HDL-C, LDL-C, triglycerides, apolipoproteins AI, B and E (ApoAI, Apo B and ApoE), lipoprotein a (Lp[a]) and derived parameters. […] Blood samples were collected for pharmacokinetic analysis of Compound A. Total cholesterol and triglycerides were measured by homogenous enzymatic assay using a Modular analyser (cholesterol oxidase peroxidase-peroxidase aminophenazone phenol [CHOP-PAP]) method and a glycerol phosphate oxidase [GPO-PAP] method, respectively. […] Lp(a) was measured by immunoturbidimetry using reagents and standards from Wako Chemicals (Germany). LDL particle size was determined by gradient gel electrophoresis. HDL fraction was separated by a combined ultracentrifugation-precipitation method ((β-quantification). HDL-2 and HDL-3 fractions were then separated by further ultracentrifugation. […] The measurements were performed on an Olympus AU600 automatic analyzer and were calibrated using secondary standards from Roche Diagnostics (total-cholesterol, triglycerides) and Diasys Diagnostics (free cholesterol, phospholipids), respectively. Esterified cholesterol was calculated as the difference between total-cholesterol and free cholesterol. […] The primary and secondary efficacy analyses were performed using an analysis of covariance (ANCOVA) model with treatment and use of statin therapy at randomisation as factors and the baseline value for the respective efficacy variable as a covariate. Least-squares means, standard errors and 2-tailed 95% confidence intervals for each treatment group and for pairwise comparisons between Compound A doses and placebo, between Compound A plus atorvastatin and atorvastatin alone, and between Compound A plus rosuvastatin and rosuvastatin alone were provided. As there were two co-primary efficacy variables, a closed testing procedure was used in order to control the family-wise error. No interim analyses were planned or conducted.

For data set [7] the following is noted: cited from earlier work.
Data set [8] deals with endothelin-1. Conditions: animal studies; cited from earlier work.
Data set [9] concerns patients. Conditions: 500 mg once daily monotherapy in patients; cited from earlier work.
Data set [10] concerns patients with mild dyslipidemia. In words: Serum-driven cholesterol efflux, baseline versus week 12 of the phase 2 trial. Conditions: p<0.0001. In kind it is in vivo, human. From the text:
Bars are means and error bars are standard deviations. The baseline data only includes patients who had both baseline and week 12 data.
In this Figure baseline and week 12 data for serum-driven cholesterol efflux is shown. Bars are means and error bars are standard deviations. The baseline data only includes patients who had both baseline and week 12 data.

Setting [11] is: atorvastatin (20 mg) once daily.
[12] abbreviates: rosuvastatin (10 mg) once daily.
The mark [13] stands for this setting: 2.5 mg of Compound A once daily.

Where two headings read alike, the source gives them in different places.

Regarding `COc1cc(F)c(C(C)C)cc1-c1ccc(C(F)(F)F)cc1CN1C(=O)O[C@H](c2cc(C(F)(F)F)cc(C(F)(F)F)c2)[C@@H]1C` [Anacetrapib, anacetrapib], in [1], the “decrease of LDL-C” value is given as 36% and the “increase of HDL C” value was 97%. Further, the half life in [2] was 2-4 years. Besides, in data set [3], the mineralocorticoid activity entry is recorded as “without mineralocorticoid activity”. Moreover, in data set [4], the “decrease of LDL-C” value is reported as 40% and the “increase of HDL C” value is listed as 139%.
Regarding `CCC(CC)CC1(C(=O)Nc2ccccc2SC(=O)C(C)C)CCCCC1` [Dalcetrapib, dalcetrapib], in [5], the “effects on LDL-C concentrations” value was “minimal effects” and the “increase of HDL-C” value is 30-40%.
As for `CC(C)c1c(C(=O)Nc2ccccc2)c(-c2ccccc2)c(-c2ccc(F)cc2)n1CC[C@@H](O)C[C@@H](O)CC(=O)O` [Atorvastatin, atorvastatin], in data set [6] (setting [11]), the “HDL-C, percentage change at Week 12 compared to baseline” value (from here on “HDL-C, percentage change”) worked out at 1.27; the “LDL-C, percentage change at Week 12 compared to baseline” value (“LDL-C, percentage change” for short) was −46.73; the “Lp(a), percentage change at Week 12 compared to baseline” value (“Lp(a), percentage change” for short) is −4.46.
With `CCOC(=O)N1c2ccc(C(F)(F)F)cc2[C@@H](N(Cc2cc(C(F)(F)F)cc(C(F)(F)F)c2)C(=O)OC)C[C@H]1CC` [Torcetrapib, torcetrapib], in [7] (consistent with mineralocorticoid activity), the off-target effects entry was “increased blood pressure, changes in electrolytes (increases in sodium and bicarbonate and decreases in potassium) and increases in aldosterone”. Further, in data set [7] (dosed at 60 mg), the “decrease of LDL-C” value is 25% and the “increase of HDL-C” value is recorded as 72%. Moreover, the safety concerns result in data set [7] (in combination with the HMG CoA reductase inhibitor atorvastatin) was “unexpected increase in cardiovascular events and death”. The “expression of endothelin-1” value in [8] is on record as “increases expression of endothelin-1”.
As to `Cc1cc(C)c2c(c1)[C@@H](N(Cc1cc(C(F)(F)F)cc(C(F)(F)F)c1)c1nnn(C)n1)CCCN2C[C@H]1CC[C@H](C(=O)O)CC1` [Evacetrapib, evacetrapib], in data set [9], the “decrease of LDL-C” value is reported as 36% and the “increase of HDL-C” value is given as 129%. Moreover, the mineralocorticoid activity entry in data set [3] is “without mineralocorticoid activity”.
For the molecule `CC(C)c1nc(N(C)S(C)(=O)=O)nc(-c2ccc(F)cc2)c1/C=C/[C@@H](O)C[C@@H](O)CC(=O)O` [Rosuvastatin, rosuvastatin], in [6] (setting [12]), the “HDL-C, percentage change” value is 6.16; the “LDL-C, percentage change” value is reported as −47.36; the “Lp(a), percentage change” value is on record as −7.79.
Consider `CCOC(=O)N1c2ccc(C(F)(F)F)cc2[C@@H](N(Cc2cc(C(F)(F)F)cc(C(F)(F)F)c2)c2ncc(OCCCC(=O)O)cn2)C[C@H]1CC` [Compound A, {4-[(2-{[3,5-bis(trifluoromethyl)benzyl][(2R,4S)-1-(ethoxycarbonyl)-2-ethyl-6-(trifluoromethyl)-1,2,3,4-tetrahydroquinolin-4-yl]amino}pyrimidin-5-yl)oxy]butanoic acid}], for which the “HDL-C, percentage change” value in data set [6] (1 mg of Compound A once daily) is 76.04; in [6] (setting [13]) it was 122.28; in data set [6] (5 mg of Compound A once daily), 160.90; in [6] (10 mg of Compound A once daily), 180.64. The “LDL-C, percentage change” value in data set [6] (1 mg of Compound A once daily) is −27.05; in data set [6] (setting [13]) it was −34.38; in data set [6] (5 mg of Compound A once daily), −47.49; in data set [6] (10 mg of Compound A once daily), −47.26. The “Lp(a), percentage change” value was −28.81 in data set [6] (1 mg of Compound A once daily), −26.69 in data set [6] (setting [13]), −37.33 in [6] (5 mg of Compound A once daily) and −34.86 in [6] (10 mg of Compound A once daily). Also, in data set [10] (1 mg of Compound A), the “increase in the ability of serum to promote cholesterol efflux” value was 16.9%. Moreover, the “increase in serum-mediated cholesterol efflux” value in data set [10] (10 mg dose of Compound A) is given as 36.7%.

The values are drawn from US10300059B2, “Pharmaceutical composition and therapeutic combination comprising a cholesteryl ester transfer protein inhibitor and HMG CoA reductase inhibitors” (DEZIMA PHARMA B.V., priority 2014, dated 2019).
